Usually IC50 stands for the concentration that inhibits the measured activity by half.

The values that follow come from patent US12336981B2, “Compounds and compositions for the inhibition of NAMPT” (Valo Health, Inc., priority 2010, dated 2025).

One experiment deals with T1, NAMPT (Homo sapiens, UniProt P43490).
T1 construct: His tag; host or cells: E. coli
The experiment in a line: Biochemical inhibition assay: NAMPT enzymatic reaction, NMN quantified by mass spectrometry. Particulars: NAMPT enzymatic reaction; read-out: Biochem IC50. A digest of the protocol:
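Inhibition of E. coli-expressed His-tagged human NAMPT, measured as NMN formation by mass spectrometry after a 30 min room-temperature reaction containing 1 μM NAM, 100 μM PRPP and 2.5 mM ATP.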

In a further experiment the test system is A2780 cells. The experiment can be described thus: In-vitro cell proliferation assay (SRB), A2780 cells. The format is cell-based. Particulars: Homo sapiens, A2780, 72 h, A2780 cells, 72 hours, SRB; read-out: A2780 IC50. A digest of the protocol: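 Proliferation is assessed by sulforhodamine B staining following a 72-hour incubation with compound dilutions containing 0.1% DMSO.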

T1 sequence (P43490 whole entry): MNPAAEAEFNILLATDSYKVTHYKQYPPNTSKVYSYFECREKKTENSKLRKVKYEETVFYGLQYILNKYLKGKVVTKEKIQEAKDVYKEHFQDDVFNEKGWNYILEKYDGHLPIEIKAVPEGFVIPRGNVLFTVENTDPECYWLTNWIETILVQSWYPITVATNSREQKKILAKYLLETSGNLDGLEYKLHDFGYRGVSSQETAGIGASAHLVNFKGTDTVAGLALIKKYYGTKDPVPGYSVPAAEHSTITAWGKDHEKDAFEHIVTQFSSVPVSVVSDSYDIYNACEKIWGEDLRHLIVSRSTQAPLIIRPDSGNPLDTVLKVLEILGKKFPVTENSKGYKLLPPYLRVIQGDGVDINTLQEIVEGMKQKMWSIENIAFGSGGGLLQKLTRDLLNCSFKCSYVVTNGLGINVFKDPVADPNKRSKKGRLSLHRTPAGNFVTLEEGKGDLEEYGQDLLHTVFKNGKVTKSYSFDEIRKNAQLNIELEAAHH

Turning to `O=C(NCc1ccc(S(=O)(=O)c2ccc(-c3ccccc3)cc2)cc1)c1cc2cc(O)ccc2[nH]1`, the IC50 lay in the range of 100 to 1000 nM at NAMPT and 1000 to 10000 nM in the experiment with A2780 cells.
Turning to `COc1ccc(S(=O)(=O)c2ccc(CNC(=O)c3cnc4[nH]ncc4c3)cc2)c(OC)c1`, the half-maximal inhibitory concentration (IC50) on NAMPT worked out at 174 nM; in the experiment on A2780 cells, 44.7 nM.
On the same counts, the results for `Cc1ccc(S(=O)(=O)c2ccc(CNC(=O)c3cnc4nccn4c3)cc2)c(C)c1` are 2.1 nM and 49.2 nM.
Take `Cc1ccc(S(=O)(=O)c2ccc(CNC(=O)c3cc4ccncc4o3)cc2)c(C)c1`: the IC50 on NAMPT is 21.8 nM; in the experiment on A2780 cells it was 24 nM.
On the same counts, the results for `NS(=O)(=O)c1cccc(S(=O)(=O)c2ccc(CNC(=O)c3cc4ccncc4s3)cc2)c1` are 2 nM and 12.1 nM.
As to `NS(=O)(=O)c1cccc(S(=O)(=O)c2ccc(CNC(=O)c3ccc4nccn4c3)cc2)c1`, the 50% inhibitory concentration (IC50) is 10.3 nM on NAMPT and 54.6 nM in the experiment with A2780 cells.
`CC(C)(C)c1cccc(S(=O)(=O)c2ccc(CNC(=O)c3cnc4nccn4c3)cc2)c1`: the half-inhibitory concentration (IC50) on NAMPT is < 0.65 nM; in the experiment with A2780 cells it was 1.2 nM.
On to `CC(C)(C)c1cccc(S(=O)(=O)c2ccc(CNC(=O)c3cc4ccncc4o3)cc2)c1`, for which the IC50 on NAMPT was determined as 9.3 nM; with A2780 cells it was 7 nM.
On the same counts, the results for `CC(C)(C)c1cccc(S(=O)(=O)c2ccc(CNC(=O)c3cc4ccncc4s3)cc2)c1` are 10.5 nM and 9.1 nM.
For `CC(=O)c1ccc(S(=O)(=O)c2ccc(CNC(=O)c3cnc4[nH]ncc4c3)cc2)cc1`, the IC50 on NAMPT is 28.9 nM; in the experiment with A2780 cells it was 3.7 nM.
The corresponding values for `CC(=O)c1ccc(S(=O)(=O)c2ccc(CNC(=O)c3cnc4nccn4c3)cc2)cc1` are 5.2 nM and 6.5 nM.
The corresponding values for `CCCCOc1ccc(S(=O)(=O)c2ccc(CNC(=O)c3cc4ccncc4s3)cc2)c(C)c1` are 3.3 nM and 100 to 1000 nM.
As for `CCCCOc1ccc(S(=O)(=O)c2ccc(CNC(=O)c3cc4cnccc4[nH]3)cc2)c(C)c1`, the half-maximal inhibitory concentration (IC50) turned out to be 80 nM on NAMPT and 62.5 nM in the experiment with A2780 cells.
As for `CCCCOc1ccc(S(=O)(=O)c2ccc(CNC(=O)c3ccc4nccn4c3)cc2)c(C)c1`, the half-maximal inhibitory concentration (IC50) stood at 10 nM at NAMPT and 22.4 nM in the experiment on A2780 cells.
For `CCCCOc1ccc(S(=O)(=O)c2ccc(CNC(=O)c3cc4ccncc4o3)cc2)c(C)c1`, the concentration for half-maximal inhibition (IC50) on NAMPT worked out at 16 nM; in the experiment with A2780 cells, 64.8 nM.
Turning to `CCCCOc1ccc(S(=O)(=O)c2ccc(CNC(=O)c3cc4ccncc4o3)cc2)cc1Cl`, the IC50 is 4.7 nM at NAMPT and 10 nM in the experiment on A2780 cells.
On the same counts, the results for `CCCCOc1ccc(S(=O)(=O)c2ccc(CNC(=O)c3cnc4[nH]ncc4c3)cc2)cc1Cl` are 4.5 nM and 11.1 nM.
Turning to `CCCCOc1ccc(S(=O)(=O)c2ccc(CNC(=O)c3cc4ccncc4s3)cc2)cc1Cl`, the IC50 was determined as 4.8 nM on NAMPT and 12.5 nM in the experiment on A2780 cells.
With `CCCCOc1ccc(S(=O)(=O)c2ccc(CNC(=O)c3cc4cnccc4[nH]3)cc2)cc1Cl`, the IC50 was determined as 17.8 nM on NAMPT and 12.4 nM with A2780 cells.
In the case of `CCCCOc1ccc(S(=O)(=O)c2ccc(CNC(=O)c3ccc4nccn4c3)cc2)cc1Cl`, the results for the concentration for half-maximal inhibition (IC50) at NAMPT and in the experiment with A2780 cells were 4.1 nM and 7.6 nM, respectively.
On the same counts, the results for `CCCCOc1ccc(S(=O)(=O)c2ccc(CNC(=O)c3cc4cnccc4[nH]3)cc2)cc1F` are 53.6 nM and 13.4 nM.
On the same counts, the results for `CCCCOc1ccc(S(=O)(=O)c2ccc(CNC(=O)c3cnc4nccn4c3)cc2)cc1F` are 1.2 nM and 3.1 nM.
On to `CCCCOc1ccc(S(=O)(=O)c2ccc(CNC(=O)c3cc4ccncc4o3)cc2)cc1F`, for which the IC50 on NAMPT came to 12.3 nM; with A2780 cells, 13.9 nM.
Turning to `CCCCOc1ccc(S(=O)(=O)c2ccc(CNC(=O)c3ccc4nccn4c3)cc2)cc1F`, the IC50 at NAMPT came out at 6.2 nM; in the experiment with A2780 cells, 3.1 nM.
`CCCCOc1ccc(S(=O)(=O)c2ccc(CNC(=O)c3ccc4nccn4c3)cc2)cc1`: the half-maximal inhibitory concentration (IC50) stood at 3.8 nM on NAMPT and 2.8 nM in the experiment on A2780 cells.
Turning to `CCCCOc1ccc(S(=O)(=O)c2ccc(CNC(=O)c3cc4ccncc4s3)cc2)cc1`, the IC50 on NAMPT came to 3.6 nM; with A2780 cells it was 10.3 nM.
In the case of `CCCCc1ccc(S(=O)(=O)c2ccc(CNC(=O)c3cc4cnccc4[nH]3)cc2)cc1`, the figures for the IC50 at NAMPT and in the experiment with A2780 cells were 14.6 nM and 35.8 nM, respectively.
`CCCCc1ccc(S(=O)(=O)c2ccc(CNC(=O)c3cnc4nccn4c3)cc2)cc1`: the concentration for half-maximal inhibition (IC50) on NAMPT was 5.3 nM; in the experiment on A2780 cells, 10.7 nM.
The corresponding values for `CCCCc1ccc(S(=O)(=O)c2ccc(CNC(=O)c3ccc4nccn4c3)cc2)cc1` are 5.7 nM and 7.6 nM.
The corresponding values for `CCCCc1ccc(S(=O)(=O)c2ccc(CNC(=O)c3cc4ccncc4s3)cc2)cc1` are 2.9 nM and 26 nM.
The corresponding values for `CCOc1cc(Cl)ccc1S(=O)(=O)c1ccc(CNC(=O)c2cc3ccncc3s2)cc1` are 2.4 nM and < 0.4 nM.
As for `CCOc1cc(Cl)ccc1S(=O)(=O)c1ccc(CNC(=O)c2cc3cnccc3[nH]2)cc1`, the half-maximal inhibitory concentration (IC50) on NAMPT worked out at 11.2 nM; with A2780 cells, 0.4 nM.
`CCOc1cc(Cl)ccc1S(=O)(=O)c1ccc(CNC(=O)c2ccc3nccn3c2)cc1`: the 50% inhibitory concentration (IC50) turned out to be 4.1 nM on NAMPT and 0.7 nM in the experiment on A2780 cells.
Consider `CCOc1cc(Cl)ccc1S(=O)(=O)c1ccc(CNC(=O)c2cc3ccncc3o2)cc1`, for which the IC50 at NAMPT came out at 7.2 nM; in the experiment with A2780 cells, 5.1 nM.
On the same counts, the results for `CCOc1cc(Cl)ccc1S(=O)(=O)c1ccc(CNC(=O)c2cnc3nccn3c2)cc1` are 2 nM and 4.5 nM.
On the same counts, the results for `COc1cc(Cl)ccc1S(=O)(=O)c1ccc(CNC(=O)c2cnc3nccn3c2)cc1` are 3.3 nM and 24.7 nM.
On the same counts, the results for `COc1cc(Cl)ccc1S(=O)(=O)c1ccc(CNC(=O)c2cc3ccncc3o2)cc1` are 8.5 nM and 24.8 nM.
Regarding `Cc1cc(Cl)ccc1S(=O)(=O)c1ccc(CNC(=O)c2cnc3nccn3c2)cc1`, the IC50 at NAMPT stood at 6.6 nM; in the experiment on A2780 cells it was 53.9 nM.
With `O=C(NCc1ccc(S(=O)(=O)c2ccc(Cl)c(F)c2)cc1)c1cc2ccncc2o1`, the 50% inhibitory concentration (IC50) came out at 18.5 nM on NAMPT and 6.5 nM in the experiment on A2780 cells.
On to `O=C(NCc1ccc(S(=O)(=O)c2ccc(Cl)c(F)c2)cc1)c1cnc2nccn2c1`, for which the results for the half-inhibitory concentration (IC50) at NAMPT and in the experiment on A2780 cells were 1.9 nM and 8.9 nM, respectively.
On the same counts, the results for `COc1cc(S(=O)(=O)c2ccc(CNC(=O)c3ccc4nccn4c3)cc2)ccc1Cl` are 13.5 nM and 6 nM.
On the same counts, the results for `COc1cc(S(=O)(=O)c2ccc(CNC(=O)c3cc4ccncc4s3)cc2)ccc1Cl` are 2.6 nM and 2.3 nM.
The corresponding values for `COc1cc(S(=O)(=O)c2ccc(CNC(=O)c3cnc4nccn4c3)cc2)ccc1Cl` are 2.7 nM and 5.2 nM.
Consider `COc1cc(S(=O)(=O)c2ccc(CNC(=O)c3cc4cnccc4[nH]3)cc2)ccc1Cl`, for which the concentration for half-maximal inhibition (IC50) on NAMPT came to 5.5 nM; in the experiment with A2780 cells it was 3.6 nM.
On the same counts, the results for `COc1cc(S(=O)(=O)c2ccc(CNC(=O)c3cnc4[nH]ncc4c3)cc2)ccc1Cl` are 12.7 nM and 13 nM.
On to `O=C(NCc1ccc(S(=O)(=O)c2ccc(Cl)cc2)cc1)c1cnc2nccn2c1`, for which the IC50 at NAMPT amounted to 2.5 nM; with A2780 cells, 23.6 nM.
For `N#Cc1ccc(S(=O)(=O)c2ccc(CNC(=O)c3ccc4nccn4c3)cc2)cc1`, the concentration for half-maximal inhibition (IC50) came out at 16 nM on NAMPT and 14.1 nM with A2780 cells.
On the same counts, the results for `O=C(NCc1ccc(S(=O)(=O)c2ccc(C3CCCCC3)cc2)cc1)c1cc2ccncc2s1` are 3.4 nM and 12.9 nM.
The corresponding values for `O=C(NCc1ccc(S(=O)(=O)c2ccc(C3CCCCC3)cc2)cc1)c1ccc2nccn2c1` are 17.8 nM and 11.7 nM.
As to `O=C(NCc1ccc(S(=O)(=O)c2ccc(C3CCCCC3)cc2)cc1)c1cnc2nccn2c1`, the IC50 at NAMPT was determined as 5.8 nM; in the experiment on A2780 cells it was 7.7 nM.
For `CCOc1ccc(S(=O)(=O)c2ccc(CNC(=O)c3ccc4nccn4c3)cc2)c(C)c1`, the IC50 is 6.6 nM on NAMPT and 11.1 nM in the experiment on A2780 cells.
The corresponding values for `CCOc1ccc(S(=O)(=O)c2ccc(CNC(=O)c3cc4cnccc4[nH]3)cc2)c(C)c1` are 9.2 nM and 12.6 nM.
As to `CCOc1ccc(S(=O)(=O)c2ccc(CNC(=O)c3cnc4[nH]ncc4c3)cc2)c(C)c1`, the IC50 was 108 nM on NAMPT and 66.7 nM in the experiment on A2780 cells.
For the compound `CCOc1ccc(S(=O)(=O)c2ccc(CNC(=O)c3cc4ccncc4s3)cc2)c(C)c1`, the values for the half-maximal inhibitory concentration (IC50) on NAMPT and in the experiment on A2780 cells were 1.2 nM and 13.2 nM, respectively.
As to `CCOc1ccc(S(=O)(=O)c2ccc(CNC(=O)c3cc4ccncc4o3)cc2)c(C)c1`, the IC50 at NAMPT is 21.6 nM; in the experiment with A2780 cells, 27.4 nM.
The corresponding values for `CCOc1ccc(S(=O)(=O)c2ccc(CNC(=O)c3ccc4nccn4c3)cc2)cc1F` are 12.7 nM and 1.8 nM.
On the same counts, the results for `CCOc1ccc(S(=O)(=O)c2ccc(CNC(=O)c3cc4ccncc4s3)cc2)cc1F` are 8.9 nM and 3.6 nM.
The corresponding values for `CCOc1ccc(S(=O)(=O)c2ccc(CNC(=O)c3cnc4nccn4c3)cc2)cc1F` are 0.9 nM and 3.1 nM.
In the case of `CCOc1ccc(S(=O)(=O)c2ccc(CNC(=O)c3cc4cnccc4[nH]3)cc2)cc1F`, the IC50 on NAMPT is 20.5 nM; in the experiment on A2780 cells it was 5.4 nM.
In the case of `CCOc1ccc(S(=O)(=O)c2ccc(CNC(=O)c3cnc4[nH]ncc4c3)cc2)cc1F`, the concentration for half-maximal inhibition (IC50) on NAMPT was found to be 9.5 nM; with A2780 cells it was 5.2 nM.
The corresponding values for `COc1cc(F)c(F)cc1S(=O)(=O)c1ccc(CNC(=O)c2cnc3nccn3c2)cc1` are 11.9 nM and 24.9 nM.
